According to ChEMBL document CHEMBL1201862, “PubChem BioAssay data set” (2004):
Active and inactive are the calls of the source.

Columns and labels:
Ion channel NompC = Ion channel NompC (Danio rerio, UniProt Q7T1G6); test: Fluorescence counterscreen assay for TRPML3 agonists: dose response cell-based high-throughput screening assay to identify agonists of the transient receptor potential channel N1 (TRPN1). [Related pubchem assays: 1526, 1424, 1448 ]; assay type: functional
Mucolipin-3 = molecular target: T1, Mucolipin-3 (Homo sapiens, UniProt Q8TDD5); test: Dose response cell-based high-throughput screening assay for agonists of the transient receptor potential channel ML3 (TRPML3). [Related pubchem assays: 1526, 1424, 1448 ]; assay type: functional
T1 sequence (Q8TDD5 whole entry): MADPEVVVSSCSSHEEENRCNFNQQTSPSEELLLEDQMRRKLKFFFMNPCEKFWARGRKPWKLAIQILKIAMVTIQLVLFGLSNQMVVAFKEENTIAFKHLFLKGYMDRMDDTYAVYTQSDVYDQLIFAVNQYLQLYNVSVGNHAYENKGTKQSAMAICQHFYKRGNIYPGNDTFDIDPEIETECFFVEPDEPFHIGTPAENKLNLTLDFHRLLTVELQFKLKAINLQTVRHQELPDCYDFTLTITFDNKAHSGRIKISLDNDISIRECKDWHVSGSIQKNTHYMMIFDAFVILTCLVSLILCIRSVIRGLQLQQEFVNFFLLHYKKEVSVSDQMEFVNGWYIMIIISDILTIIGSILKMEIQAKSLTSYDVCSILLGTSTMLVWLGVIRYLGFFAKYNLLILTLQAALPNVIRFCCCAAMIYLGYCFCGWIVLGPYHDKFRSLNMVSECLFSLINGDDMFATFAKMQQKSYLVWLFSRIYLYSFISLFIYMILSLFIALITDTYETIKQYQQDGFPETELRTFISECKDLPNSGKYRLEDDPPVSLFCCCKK

[1] = molecular target: NAD-dependent protein deacylase sirtuin-5, mitochondrial (Homo sapiens, UniProt Q9NXA8); test: sirtuin-5 deacylation blockers, concentration series – biochemical, fluorescence imaging, cherry-pick, set 5, dose response (AID 720591);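 further: desuccinylation of succinyl peptide AMC substrate read as fluorescence after trypsin release; potency of inhibitors that lower fluorescence and may act on trypsin instead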
[2] = molecular target: T2, Tyrosine-protein phosphatase non-receptor type 7 (Homo sapiens, UniProt P35236); test: HePTP tyrosine phosphatase activity blockers – biochemical, absorbance, leukemia target, primary screen (AID 521); assay type: functional
T2 sequence (P35236 whole entry): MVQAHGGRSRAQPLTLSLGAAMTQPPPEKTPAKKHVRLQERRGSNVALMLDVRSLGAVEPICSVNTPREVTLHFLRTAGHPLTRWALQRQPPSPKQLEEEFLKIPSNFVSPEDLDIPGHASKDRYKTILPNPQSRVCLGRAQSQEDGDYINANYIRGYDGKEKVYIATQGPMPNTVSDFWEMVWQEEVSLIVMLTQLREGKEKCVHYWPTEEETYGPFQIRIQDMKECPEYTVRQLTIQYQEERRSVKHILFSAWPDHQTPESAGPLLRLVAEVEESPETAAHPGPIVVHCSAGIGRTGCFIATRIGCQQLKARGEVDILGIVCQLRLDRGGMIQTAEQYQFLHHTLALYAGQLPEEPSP

[3] = A Cell Based Secondary Assay To Explore Cytotoxicity of Compounds that Sensitize Mycobacterium Tuberculosis to Beta-Lactam Antibiotics.; assay type: functional
HeLa = test: viability loss in HeLa cells – cell-based, 24 h, cherry-picked samples, cytotoxicity control, dose response (AID 504726); assay type: functional; details: Homo sapiens;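 further: potency for cytotoxicity as loss of luminescence signal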
[4] = molecular target: T3, Heat shock factor protein 1 (Mus musculus, UniProt P38532); test: decrease of HSF1-responsive luciferase luminescence – cell-based, NIH3T3, dose retest, confirmation (AID 2382); assay type: functional;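 further: NIH3T3 fibroblasts with HSF1-driven luciferase reporter stressed by proteasome inhibitor MG132; luminescence from HSF1-driven luciferase expression after 8 hours of MG132 stress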
T3 sequence (P38532 whole entry): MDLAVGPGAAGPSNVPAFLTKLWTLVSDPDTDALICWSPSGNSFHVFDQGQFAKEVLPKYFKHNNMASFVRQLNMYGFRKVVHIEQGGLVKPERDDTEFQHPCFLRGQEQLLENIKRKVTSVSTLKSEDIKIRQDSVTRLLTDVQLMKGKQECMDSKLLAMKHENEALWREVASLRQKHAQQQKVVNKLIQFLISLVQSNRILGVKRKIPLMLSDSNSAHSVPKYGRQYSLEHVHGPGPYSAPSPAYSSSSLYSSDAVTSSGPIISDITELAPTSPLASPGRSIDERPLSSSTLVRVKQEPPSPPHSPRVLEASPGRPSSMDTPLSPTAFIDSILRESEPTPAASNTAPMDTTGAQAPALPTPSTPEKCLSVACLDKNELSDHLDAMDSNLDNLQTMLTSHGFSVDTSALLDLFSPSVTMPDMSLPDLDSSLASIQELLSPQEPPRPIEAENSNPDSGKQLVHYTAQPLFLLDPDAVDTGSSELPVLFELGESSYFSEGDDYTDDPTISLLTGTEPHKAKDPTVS

Cytochrome P450 2C9 = Cytochrome P450 2C9 (Homo sapiens, UniProt P11712)
Cytochrome P450 3A4 = Cytochrome P450 3A4 (Homo sapiens, UniProt P08684);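 further: CYP3A4 tested as one member of a cytochrome P450 panel screen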
[5] = molecular target: T4, Lysosomal acid glucosylceramidase (Homo sapiens, UniProt P04062); test: Dose response cell-based high throughput screening assay to identify enhancers of beta-glucosidase activity. [Related pubchem assays: 784 ]; assay type: functional
T4 sequence (P04062 whole entry): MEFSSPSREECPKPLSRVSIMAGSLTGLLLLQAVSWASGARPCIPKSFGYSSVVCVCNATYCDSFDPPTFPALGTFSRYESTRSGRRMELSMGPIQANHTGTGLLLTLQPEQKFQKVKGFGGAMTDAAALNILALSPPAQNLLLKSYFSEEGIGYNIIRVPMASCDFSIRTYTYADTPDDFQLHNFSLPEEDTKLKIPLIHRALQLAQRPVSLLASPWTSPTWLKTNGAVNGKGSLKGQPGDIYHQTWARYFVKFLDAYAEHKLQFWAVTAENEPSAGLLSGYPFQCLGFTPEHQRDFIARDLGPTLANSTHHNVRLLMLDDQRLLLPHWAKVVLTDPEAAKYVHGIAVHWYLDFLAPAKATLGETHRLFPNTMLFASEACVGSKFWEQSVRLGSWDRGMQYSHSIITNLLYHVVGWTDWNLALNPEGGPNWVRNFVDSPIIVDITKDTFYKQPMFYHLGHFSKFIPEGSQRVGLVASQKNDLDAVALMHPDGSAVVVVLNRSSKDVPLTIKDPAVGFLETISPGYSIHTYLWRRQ

[6] = molecular target: Peroxisome proliferator-activated receptor gamma/Nuclear receptor coactivator 3 (Homo sapiens, UniProt P37231); assay type: functional;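 further: agonist potency for raising coactivator recruitment to the receptor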
[7] = molecular target: Peroxisome proliferator-activated receptor gamma/Nuclear receptor coactivator 2 (Homo sapiens, UniProt P37231); assay type: functional;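 further: agonist potency for raising coactivator recruitment to the receptor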
[8] = molecular target: Peroxisome proliferator-activated receptor gamma/Nuclear receptor coactivator 1 (Homo sapiens, UniProt P37231); assay type: functional;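 further: agonist potency as compounds enhance coactivator SRC-1 recruitment to PPARgamma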
[9] = molecular target: T5, Voltage-gated N-type calcium channel alpha-1B subunit/Amyloid beta A4 precursor protein-binding family A member 1 (Homo sapiens, UniProt Q00975+Q02410); assay type: protein assay
[10] = molecular target: T5, Voltage-gated N-type calcium channel alpha-1B subunit/Amyloid beta A4 precursor protein-binding family A member 1; assay type: protein assay; remark: listed apart in the source
fMet-Leu-Phe receptor = molecular target: T6, fMet-Leu-Phe receptor (Homo sapiens, UniProt P21462); test: formyl peptide receptor binders – dose response (AID 519); assay type: functional
T6 sequence (P21462 whole entry): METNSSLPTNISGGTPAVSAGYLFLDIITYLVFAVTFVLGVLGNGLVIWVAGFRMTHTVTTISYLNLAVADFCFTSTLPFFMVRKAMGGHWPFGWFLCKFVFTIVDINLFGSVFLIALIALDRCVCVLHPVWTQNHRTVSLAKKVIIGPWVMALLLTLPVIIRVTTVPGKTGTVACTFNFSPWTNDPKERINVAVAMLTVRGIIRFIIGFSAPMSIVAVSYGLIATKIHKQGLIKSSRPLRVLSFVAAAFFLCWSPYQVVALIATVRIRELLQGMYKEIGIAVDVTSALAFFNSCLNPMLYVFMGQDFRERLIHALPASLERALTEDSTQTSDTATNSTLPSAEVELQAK

[11] = viability of uninfected HEp-2 cells – cell-based, HTS, cytotoxicity control for RSV inhibitor project, dose response (AID 2410); assay type: functional; details: human respiratory syncytial virus
[12] = molecular target: T7, COUP transcription factor 2 (Homo sapiens, UniProt P24468); test: Luminescence-based cell-based high throughput dose response assay to identify inhibitors of COUP-TFII (NR2F2).; assay type: functional;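 further: HEK293 cells transiently cotransfected with COUP-TFII expression vector and reporter; luciferase reporter luminescence driven by COUP-TFII from the pX2-168 reporter plasmid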
T7 sequence (P24468 whole entry): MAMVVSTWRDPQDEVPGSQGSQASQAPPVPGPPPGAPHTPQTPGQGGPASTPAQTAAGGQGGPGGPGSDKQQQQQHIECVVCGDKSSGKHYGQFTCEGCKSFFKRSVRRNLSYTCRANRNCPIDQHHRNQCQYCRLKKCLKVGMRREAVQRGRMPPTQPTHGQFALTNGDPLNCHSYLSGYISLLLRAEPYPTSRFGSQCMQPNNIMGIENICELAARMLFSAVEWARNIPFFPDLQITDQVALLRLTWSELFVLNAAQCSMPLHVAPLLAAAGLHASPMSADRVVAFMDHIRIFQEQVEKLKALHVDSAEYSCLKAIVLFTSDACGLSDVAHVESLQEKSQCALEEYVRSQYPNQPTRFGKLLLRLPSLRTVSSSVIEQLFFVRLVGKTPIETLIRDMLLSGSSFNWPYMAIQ

Vero = test: viability of Vero cells under compound – cytotoxicity control for flavivirus capping enzyme inhibitors (AID 588742); assay type: functional; details: Chlorocebus sabaeus
[13] = molecular target: Disintegrin and metalloproteinase domain-containing protein 17 (Homo sapiens, UniProt P78536); test: inhibition of ADAM17 substrate cleavage – biochemical, quenched FRET substrate, counter-screen for ADAM10 exosite inhibitor project, dose response (AID 743253)
[14] = molecular target: Heat shock protein HSP 90-alpha (Homo sapiens, UniProt P07900); assay type: functional, organism-based
[15] = potency of ADAM10 substrate cleavage blockers – biochemical, QFRET, dose response (AID 743254);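 further: ADAM10 enzyme with the DM2 quenched FRET peptide as substrate; EDANS fluorescence gain as the protease cuts the substrate; inhibitor potency against ADAM10 proteolytic activity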
[16] = molecular target: Protein-tyrosine kinase 2-beta (Homo sapiens, UniProt Q14289);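 further: potency of inhibitors of PYK2 kinase phosphorylation of poly-GT substrate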
[17] = Dd2 parasite growth inhibition in erythrocytes – SYBR Green, dry powder samples, set 9, dose response (AID 1159568); assay type: functional, cell-based

Chain of Ion channel NompC (Q7T1G6 whole entry): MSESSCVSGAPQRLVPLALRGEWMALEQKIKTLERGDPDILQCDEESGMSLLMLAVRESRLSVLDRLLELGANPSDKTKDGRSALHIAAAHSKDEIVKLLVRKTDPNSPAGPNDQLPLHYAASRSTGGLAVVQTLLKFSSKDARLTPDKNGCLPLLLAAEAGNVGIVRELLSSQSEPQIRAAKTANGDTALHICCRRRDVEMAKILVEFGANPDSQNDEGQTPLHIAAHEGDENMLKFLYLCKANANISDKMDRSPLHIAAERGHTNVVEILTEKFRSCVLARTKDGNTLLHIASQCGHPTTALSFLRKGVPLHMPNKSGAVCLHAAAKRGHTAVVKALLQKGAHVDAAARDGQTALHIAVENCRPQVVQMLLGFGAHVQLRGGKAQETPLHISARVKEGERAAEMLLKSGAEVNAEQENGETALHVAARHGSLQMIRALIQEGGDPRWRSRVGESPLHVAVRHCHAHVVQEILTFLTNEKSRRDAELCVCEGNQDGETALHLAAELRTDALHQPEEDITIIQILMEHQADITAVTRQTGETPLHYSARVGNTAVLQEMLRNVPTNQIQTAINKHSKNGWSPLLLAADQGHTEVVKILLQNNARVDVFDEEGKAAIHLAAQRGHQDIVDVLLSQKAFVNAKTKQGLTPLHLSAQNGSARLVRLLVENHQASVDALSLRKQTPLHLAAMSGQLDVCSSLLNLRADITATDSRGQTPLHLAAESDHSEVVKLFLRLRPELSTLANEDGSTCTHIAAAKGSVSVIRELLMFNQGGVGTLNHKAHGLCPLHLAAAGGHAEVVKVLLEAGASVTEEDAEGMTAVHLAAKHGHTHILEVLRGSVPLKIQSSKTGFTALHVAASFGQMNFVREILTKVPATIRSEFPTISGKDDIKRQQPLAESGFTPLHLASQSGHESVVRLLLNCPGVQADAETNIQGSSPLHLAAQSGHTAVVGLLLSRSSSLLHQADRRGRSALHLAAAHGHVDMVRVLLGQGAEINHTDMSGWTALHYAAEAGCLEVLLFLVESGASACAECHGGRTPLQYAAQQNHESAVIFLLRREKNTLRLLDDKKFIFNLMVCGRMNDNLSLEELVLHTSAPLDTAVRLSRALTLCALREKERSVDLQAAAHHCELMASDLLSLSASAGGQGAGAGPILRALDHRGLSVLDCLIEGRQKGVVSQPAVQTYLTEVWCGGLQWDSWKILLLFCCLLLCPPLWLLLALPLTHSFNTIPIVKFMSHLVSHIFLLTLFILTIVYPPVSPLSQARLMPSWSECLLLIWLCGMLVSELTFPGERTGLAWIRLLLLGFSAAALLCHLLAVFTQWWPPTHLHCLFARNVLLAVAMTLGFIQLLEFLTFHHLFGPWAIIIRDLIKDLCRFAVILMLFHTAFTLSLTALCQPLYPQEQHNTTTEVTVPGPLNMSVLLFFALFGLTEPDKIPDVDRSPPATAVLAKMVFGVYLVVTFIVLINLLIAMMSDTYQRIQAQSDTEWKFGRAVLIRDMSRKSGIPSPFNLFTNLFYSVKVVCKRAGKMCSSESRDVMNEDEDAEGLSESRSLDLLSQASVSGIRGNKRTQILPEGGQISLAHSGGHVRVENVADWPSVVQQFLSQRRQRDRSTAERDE
Chain of NAD-dependent protein deacylase sirtuin-5, mitochondrial (Q9NXA8 whole entry): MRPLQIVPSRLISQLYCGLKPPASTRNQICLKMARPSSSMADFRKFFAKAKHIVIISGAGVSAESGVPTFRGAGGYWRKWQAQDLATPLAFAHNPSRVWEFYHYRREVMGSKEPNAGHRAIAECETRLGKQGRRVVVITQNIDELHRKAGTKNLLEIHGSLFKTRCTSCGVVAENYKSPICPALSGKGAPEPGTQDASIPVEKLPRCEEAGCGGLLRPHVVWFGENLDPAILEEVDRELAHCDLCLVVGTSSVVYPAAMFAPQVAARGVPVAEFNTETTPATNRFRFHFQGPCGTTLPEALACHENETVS
T5 sequence (Q00975 whole entry): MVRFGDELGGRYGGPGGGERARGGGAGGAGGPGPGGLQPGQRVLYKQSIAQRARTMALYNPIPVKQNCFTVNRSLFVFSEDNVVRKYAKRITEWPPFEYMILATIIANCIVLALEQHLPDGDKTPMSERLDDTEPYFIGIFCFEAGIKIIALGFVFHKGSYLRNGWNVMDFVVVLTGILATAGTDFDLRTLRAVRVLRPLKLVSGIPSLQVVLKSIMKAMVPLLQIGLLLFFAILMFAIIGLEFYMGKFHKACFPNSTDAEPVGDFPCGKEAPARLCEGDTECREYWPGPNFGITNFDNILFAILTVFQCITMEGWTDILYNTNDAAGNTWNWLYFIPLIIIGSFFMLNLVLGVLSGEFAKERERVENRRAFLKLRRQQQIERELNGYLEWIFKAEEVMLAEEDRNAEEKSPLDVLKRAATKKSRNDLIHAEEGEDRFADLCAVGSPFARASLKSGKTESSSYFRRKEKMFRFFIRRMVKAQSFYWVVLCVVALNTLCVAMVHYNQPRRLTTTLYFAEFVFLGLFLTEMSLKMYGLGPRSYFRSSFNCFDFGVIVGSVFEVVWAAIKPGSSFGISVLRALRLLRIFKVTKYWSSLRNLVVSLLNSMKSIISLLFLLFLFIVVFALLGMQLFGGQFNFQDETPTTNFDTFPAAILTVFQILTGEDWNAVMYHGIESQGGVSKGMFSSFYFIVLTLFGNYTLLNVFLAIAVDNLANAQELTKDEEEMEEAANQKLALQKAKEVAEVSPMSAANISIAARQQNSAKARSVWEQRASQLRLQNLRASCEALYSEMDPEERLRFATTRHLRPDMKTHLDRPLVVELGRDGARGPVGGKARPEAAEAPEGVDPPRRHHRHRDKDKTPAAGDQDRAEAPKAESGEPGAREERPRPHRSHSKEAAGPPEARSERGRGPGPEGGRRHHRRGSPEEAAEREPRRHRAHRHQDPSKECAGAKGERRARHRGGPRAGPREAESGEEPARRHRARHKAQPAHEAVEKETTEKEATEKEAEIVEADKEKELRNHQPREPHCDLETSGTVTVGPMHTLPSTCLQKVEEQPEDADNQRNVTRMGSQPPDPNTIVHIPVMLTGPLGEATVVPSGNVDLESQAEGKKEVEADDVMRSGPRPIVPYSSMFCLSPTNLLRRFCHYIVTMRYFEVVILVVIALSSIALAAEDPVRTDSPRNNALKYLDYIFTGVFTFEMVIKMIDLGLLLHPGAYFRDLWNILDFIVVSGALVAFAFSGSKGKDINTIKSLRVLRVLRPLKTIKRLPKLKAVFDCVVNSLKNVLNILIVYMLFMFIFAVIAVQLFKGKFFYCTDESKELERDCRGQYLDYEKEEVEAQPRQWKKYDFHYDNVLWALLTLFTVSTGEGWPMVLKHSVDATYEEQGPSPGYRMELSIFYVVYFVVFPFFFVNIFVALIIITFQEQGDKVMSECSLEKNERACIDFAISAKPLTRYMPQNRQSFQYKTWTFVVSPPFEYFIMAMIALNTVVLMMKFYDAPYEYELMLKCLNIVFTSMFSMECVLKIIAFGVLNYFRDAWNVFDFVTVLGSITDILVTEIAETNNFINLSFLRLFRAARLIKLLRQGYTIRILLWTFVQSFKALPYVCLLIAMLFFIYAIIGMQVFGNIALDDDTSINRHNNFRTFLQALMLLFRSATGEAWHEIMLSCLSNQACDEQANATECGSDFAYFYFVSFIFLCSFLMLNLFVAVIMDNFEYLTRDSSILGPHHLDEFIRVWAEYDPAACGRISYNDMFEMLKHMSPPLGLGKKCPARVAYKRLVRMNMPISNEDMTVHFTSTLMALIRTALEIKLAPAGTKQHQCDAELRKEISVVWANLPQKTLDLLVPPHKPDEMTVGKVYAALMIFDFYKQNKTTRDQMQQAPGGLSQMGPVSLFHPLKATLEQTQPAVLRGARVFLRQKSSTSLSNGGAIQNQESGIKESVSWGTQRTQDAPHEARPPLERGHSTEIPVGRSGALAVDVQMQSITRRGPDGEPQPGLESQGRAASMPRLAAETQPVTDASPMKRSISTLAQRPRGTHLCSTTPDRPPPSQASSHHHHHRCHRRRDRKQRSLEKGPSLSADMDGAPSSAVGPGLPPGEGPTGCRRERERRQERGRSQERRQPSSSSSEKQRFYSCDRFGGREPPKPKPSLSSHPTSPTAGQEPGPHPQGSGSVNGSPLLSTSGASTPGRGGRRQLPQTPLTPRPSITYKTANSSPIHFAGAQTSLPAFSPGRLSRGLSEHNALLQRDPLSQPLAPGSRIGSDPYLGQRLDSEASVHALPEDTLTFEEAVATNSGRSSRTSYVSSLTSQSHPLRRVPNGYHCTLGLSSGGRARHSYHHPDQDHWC
T5 sequence (Q02410 whole entry): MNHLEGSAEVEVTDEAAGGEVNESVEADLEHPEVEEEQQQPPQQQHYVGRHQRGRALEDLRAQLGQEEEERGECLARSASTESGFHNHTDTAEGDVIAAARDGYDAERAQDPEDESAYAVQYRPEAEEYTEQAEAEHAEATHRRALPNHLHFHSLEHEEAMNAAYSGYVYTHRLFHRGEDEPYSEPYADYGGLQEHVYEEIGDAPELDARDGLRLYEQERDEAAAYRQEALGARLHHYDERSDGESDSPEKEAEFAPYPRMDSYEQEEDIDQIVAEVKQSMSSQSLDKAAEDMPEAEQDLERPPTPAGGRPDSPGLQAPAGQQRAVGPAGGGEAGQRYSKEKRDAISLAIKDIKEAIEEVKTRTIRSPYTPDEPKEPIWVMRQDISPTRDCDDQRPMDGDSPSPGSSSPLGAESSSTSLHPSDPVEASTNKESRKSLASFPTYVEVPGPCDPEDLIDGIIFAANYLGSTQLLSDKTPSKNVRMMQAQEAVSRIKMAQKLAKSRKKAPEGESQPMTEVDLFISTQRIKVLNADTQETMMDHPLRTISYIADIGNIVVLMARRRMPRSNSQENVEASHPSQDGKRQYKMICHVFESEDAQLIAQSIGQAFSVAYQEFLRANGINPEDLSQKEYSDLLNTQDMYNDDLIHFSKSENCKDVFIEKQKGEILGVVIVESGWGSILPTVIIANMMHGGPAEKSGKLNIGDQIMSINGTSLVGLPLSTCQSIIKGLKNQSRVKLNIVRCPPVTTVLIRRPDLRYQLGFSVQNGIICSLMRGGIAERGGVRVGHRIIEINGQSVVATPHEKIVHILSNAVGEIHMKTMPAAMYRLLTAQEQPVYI

## O=S(=O)(Nc1ccccc1N1CCCCC1)c1ccc(F)cc1
Ion channel NompC
  EC50: > 29.9 µM (not active)
Mucolipin-3
  EC50: 3.27 µM (active)

## COc1ccc(C(=O)C2=C(O)C(=O)N(CCCN3CCOCC3)C2c2ccc(OC)cc2)cc1 (centres undefined)
[1]
  AC50: > 30 µM (inactive)

## CC1(C)CC(=O)c2cnc(NC(=O)c3ccco3)nc2C1
[2]
  IC50: > 100 µM (not active)

## CCN1C(=O)[C@@H]2[C@@H](c3ccc(-c4ccc(Cl)c(Cl)c4)c(OC)c3)N3CCC[C@@]3(C(=O)OC)[C@@H]2C1=O
[3]
  CC50: 30.4 µM (active)

## CCOC(=O)c1cnc(SC)nc1Sc1ccc(Cl)cc1Cl
HeLa
  AC50: 261 µM (active)

## Cc1cc(C(C)(C)C)oc1C(=O)N(CC(=O)NC1CCCC1)c1c(C)cccc1C
[4]
  EC50: > 195 µM (not active)
Ion channel NompC
  EC50: > 29.9 µM (not active)
Mucolipin-3
  EC50: 2.54 µM (active)

## CC(C)NC(=O)c1cccc(Br)c1
[1]
  AC50: > 30 µM (inactive)

## COC(=O)c1ccc(NC2c3ncccc3C(=O)N2Cc2cccs2)cc1 (centres undefined)
cells
  IC50: 5.98 µM (active)

## CCOc1cc(S(=O)(=O)N2CCCCCC2)ccc1F
Ion channel NompC
  EC50: > 29.9 µM (not active)
Mucolipin-3
  EC50: > 29.9 µM (not active)

## O=C(CSc1nnc2c(n1)[nH]c1ccc(F)cc12)OCc1ccccc1
Cytochrome P450 2C9
  AC50: 0.0708 µM (inconclusive)
Cytochrome P450 3A4
  AC50: 8.91 µM (inconclusive)
[5]
  EC50: > 50 µM (not active)

## COCc1c(C(=O)OC)nnn1-c1ccccc1
[6]
  EC50: > 79.4 µM (not active)
[7]
  EC50: > 79.4 µM (not active)
[8]
  EC50: > 79.4 µM (not active)

## COc1ccc(CC(=O)Nc2ccc(-c3nnc(-c4ccc(C)cc4)o3)cc2)cc1
[9]
  IC50: > 50 µM (inactive)
[10]
  IC50: 14.4 µM (active)
fMet-Leu-Phe receptor
  Ki: > 66.7 µM (inactive)
[2]
  IC50: > 100 µM (not active)

## CNS(=O)(=O)c1ccc(OC)c(-c2nnc3c4ccccc4c(C)nn23)c1
cells
  IC50: 26.5 µM (active)

## Cc1ccc(S(=O)(=O)Nc2cc(C(=O)O)ccc2N2CCCCC2)cc1
[5]
  EC50: > 50 µM (not active)

## Cc1ccc(C)c(C(=O)C2=C(O)C(=O)N(CCCn3ccnc3)C2c2ccncc2)c1 (centres undefined)
fMet-Leu-Phe receptor
  Ki: > 66.7 µM (inactive)
[5]
  EC50: > 50 µM (not active)

## COC(=O)C1=C(c2ccc(F)cc2F)C[C@@H]2CC[C@H]1N2C(=O)N1CCC(C)CC1
[11]
  CC50: 34.2 µM (active)
cells
  IC50: 41.2 µM (active)

## CC(C)(C)OC(=O)N1CCC[C@H]1c1nnc(SCc2cccc(Cl)c2)o1
[1]
  AC50: > 30 µM (inactive)

## O=C(/C=C/c1ccc([N+](=O)[O-])cc1)c1ccccc(=O)c1O
[12]
  IC50: 9.51 µM (active)
Vero
  CC50: 1.87 µM (active)
[13]
  IC50: 11.8 µM (inactive)
[14]
  AC50: 1.54 µM (active)
[15]
  IC50: 8.35 µM (active)

## CO/C(O)=C1\C(C)=NC2=C(C(=O)CC(c3cccs3)C2)C1c1ccsc1 (centres undefined)
[16]
  IC50: > 69.5 µM (not active)

## Cc1ccnn1CC(=O)N/N=C/c1ccc([N+](=O)[O-])s1
[3]
  CC50: 36 µM (active)

## C[C@H]1CCCCO[C@@H](CN(C)S(=O)(=O)c2ccc(F)cc2)[C@@H](C)CN([C@@H](C)CO)C(=O)c2cc(N(C)C)ccc2O1
[17]
  AC50: 2.54 µM (active)

## N#C[C@H]1N[C@H](CO)[C@H]1c1ccc(C#CC2CCCCC2)cc1
[17]
  AC50: 12.9 µM (active)
